Source: patent US9751857B2, “Hepatitis B antiviral agents” (NOVIRA THERAPEUTICS, INC., priority 2011, dated 2017)

Experiments:
[1] = molecular target: HBV C150Bo capsid protein (HBV CA protein) (Hepatitis B virus genotype D subtype adw, UniProt P03147, C107A/C48A/C61A/R150C); assay: HBV assembly assay (fluorescence quenching in vitro assembly); type: biochemical; conditions: at 10 μM
[2] = test system: HBV replication in HepG2-2.2.15 cells; assay: Dot-blot assay of HBV replication; type: cell-based; conditions: Hepatitis B virus, 144 h
Experimental: Compounds active in the HBV assembly assay are tested for their activity and toxicity in cellular assay. In the first anti-viral assay, the ability of compounds to inhibit HBV replication in an HBV-producing hepatoma cell line using the dot-blot method is evaluated.
Briefly, confluent monolayers of HepG2-2.2.15 cells are incubated with complete medium containing various concentrations of a test compound. Three days later, the culture medium is replaced with fresh medium containing the appropriately diluted test compound. Six days following the initial administration of the test compound, the cell culture supernatant is collected, and cell lysis is performed. The samples are applied onto Nylos membranes and DNA is immobilized to the membrane by UV cross-linking. After pre-hybridization, the HBV probe is added and the hybridization is performed overnight. The membranes are exposed to the Kodak films; antiviral activity is calculated from the reduction in HBV DNA levels (EC50). The EC50 for antiviral activity is calculated from the dose response curves of active compounds.
In the first anti-viral assay, the ability of compounds to inhibit HBV replication in an HBV-producing hepatoma cell line using the dot-blot method was evaluated.
Confluent monolayers of HepG2-2.2.15 cells were incubated with complete medium containing various concentrations of a test compound. Three days later, the culture medium was replaced with fresh medium containing the appropriately diluted test compound. Six days following the initial administration of the test compound, the cell culture supernatant was collected, and cell lysis was performed. The samples were applied onto Nylos membranes and DNA was immobilized to the membrane by UV cross-linking. After pre-hybridization, the HBV probe was added and the hybridization was performed overnight. The membranes were exposed to the Kodak films; antiviral activity was calculated from the reduction in HBV DNA levels (EC50). The EC50 for antiviral activity was calculated from the dose response curves of active compounds. […]

Chain of HBV C150Bo capsid protein (HBV CA protein) (P03147 1-150 C48A/C61A/C107A/R150C): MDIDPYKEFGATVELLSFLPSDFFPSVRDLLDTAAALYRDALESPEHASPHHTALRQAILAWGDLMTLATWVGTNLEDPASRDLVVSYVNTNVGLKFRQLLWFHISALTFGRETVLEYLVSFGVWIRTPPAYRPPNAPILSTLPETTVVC

O=C(Nc1cc(F)c(F)c(F)c1)c1cc(S(=O)(=O)NC2COCC2O)c(F)cc1Cl (centres unmarked) [compound 1404]
Activity in HBV assembly assay [1]: + (‘+’ indicates >50% activity at 10 μM) | inhibition at 10 µM [2]: > 50%

O=C(Nc1ccc(F)c(Cl)c1)c1cc(S(=O)(=O)N2CC(O)C(F)C2)c(F)cc1Cl (centres unmarked) [compound 1410]
Activity in HBV assembly assay [1]: + (‘+’ indicates >50% activity at 10 μM) | inhibition at 10 µM [2]: > 50%

O=C(Nc1ccc(F)c(F)c1)c1cc(S(=O)(=O)N2CC(O)C(F)C2)c(F)cc1Cl (centres unmarked) [compound 1413]
Activity in HBV assembly assay [1]: + (‘+’ indicates >50% activity at 10 μM) | inhibition at 10 µM [2]: > 50%

O=C(Nc1cc(F)c(F)c(F)c1)c1ccc(CO)c(S(=O)(=O)N2CCC(O)CC2)c1 [compound 1420]
Activity in HBV assembly assay [1]: + (‘+’ indicates >50% activity at 10 μM) | inhibition at 10 µM [2]: > 50%
